Patent publication US6528251B2, “Method of managing the chemotherapy of patients who are HIV positive based on the phenotypic drug sensitivity of human HIV strains” (Virco N.V., priority 1996, dated 2003)
Read-outs that look alike come from different tables or passages of the source.

How the values were obtained:
Type in all cases: cell-based, HIV-1
[1] = tested on: Recombinant wild type HIV strain recIIIB; test: Antiviral MT4/MTT assay with reference virus recIIIB; settings: read-out: Anti-HIV-1 activity IC50 (μM) recIIIB ref (2)
Description: (§1) After titration of the new viruses, the stocks were used for antiviral experiments in the presence of serial dilutions of different HIV inhibitors. Titres of the harvested supematants were determined by limited serial dilution titration of virus in MT4 cells.
(§2) Viruses with a useful titre were used in antiviral experiments. For this purpose, 96-well microtitre plates were filled with 100μl of complete culture medium. Subsequently, stock solutions of compounds were added in 25 μl volumes to series of duplicate wells. HIV- and mock-infected cell samples were included for each drug (or drug combination). Exponentially growing MT4 cells were then transferred to the microtitre plates at a density of 150,000 cells/ml. The cell cultures were then incubated at 37° C. in a humidified atmosphere of 5% CO2. Five days after infection, the viability of the mock- and HIV-infected cells was examined spectrophotometrically by the M1T method (Pauwels, R. et al. J. Virol. Meth. (1988), 20: 309-321) as described in Section 6 below.
(§3) To each well of the microtiter plates, 20 μl of a solution of MTT (7.5 mg/ml in PBS) was added. The plates were further incubated at 37° C. for 1 h. Then, 150 μl of medium was removed without disturbing the MT4 cell clusters containing the formazan crystals. Solubilization of the formazan crystals was achieved by adding 100 μl 5% Triton X-100 in acidified isopropanol (5 ml concentrated HCl per liter solvent). Complete dissolution of the formazan crystals was obtained after the plates had been placed on a plate shaker for 10 min. Finally the absorbances were read at two wavelengths (540 and 690 nm). From these optical density (OD) data, 50% inhibitory (IC50) and 50% cytotoxic (CC50) concentrations were derived.

[2] = tested on: recombinant virus from patient viral RNA (Example 10, drug-naive patient); test: Recombinant virus assay (MT4/MTT), drug-naive patient of Example 10; settings: for IC50: Human immunodeficiency virus 1, Table 6, Example 10 patient virus
Description: (§4) RNA was isolated from 100 μl of plasma according to the method described by Boom, R. et al. (1990, supra), and was reverse transcribed with the GeneAmp reverse transcriptase kit (Perkin Elmer) as described by the manufacturer and using an HIV-1 specific downstream primer (OUT3: 5′-CATTGCTCTCCAATTACTGTGATATTTCTCATC-3′; SEQ ID NO: 1). PCR on reverse transcribed RNA was performed with inner and outer primers as described by Kellam, P. and Larder, B. A. (1994, supra). After chloroform extraction and centrifugation on Centricon 100 columns or centrifugation on anion-exchange spin columns (Quiagen), the isolated PCR product was ready for use in the transfection reactions.
(§5) MT4 cells were subcultured at a density of 250,000 cells/ml before transfection (exponential growth phase). Cells were pelleted and resuspended in phosphate buffered saline (PBS) at a concentration of […]. A 0.8 ml portion (2.5 10E6 cells/ml) was used for each transfection. Transfection was performed with the Bio-Rad Gene pulser making use of 0.4 cm electrode cuvettes. Cells were electroporated in the presence of […] of linearised pHIVΔRT plasmid and approximately 5 μg of RT PCR product at 250SF and 300 V, followed by a 30-min incubation at room temperature. Subsequently, 10 ml of fresh culture medium was added to the cell suspension and incubation was performed at 37° C. in a humidified atmosphere of 5% CO2.
(§6) During 7 to 10 days following the transfection, cells were monitored for the appearance of cytopathogenic effect (CPE). In the absence thereof, cells were subcultured in different flasks. Subsequently, culture supernatants of transfected cells were used to create a stock of recombinant virus and stored in 1.5 ml aliquots at −70° C.
as §1, §2, §3
(§7) A drug-naive HIV-infected patient donated plasma whose susceptibility to a number of RT inhibitors and protease inhibitors was determined according to the protocol set out in Example 1. Recombinant wild type HIV strain recIIIB was used as a reference HIV virus.

[3] = tested on: recombinant virus from patient viral RNA (Example 11); test: Recombinant virus assay (MT4/MTT), patient of Example 11 (therapy history RT and protease inhibitors); settings: for IC50: Human immunodeficiency virus 1, Table 7, Example 11 patient virus
Description: as §4, §5, §6, §1, §2, §3
as §7, with “An HIV infected” for “A drug-naive HIV-infected”, “patient with a therapy history including RT and protease inhibitors” for “patient”, “recIIIb” for “recIIIB”

[4] = tested on: recombinant virus from patient viral RNA (Example 12); test: Recombinant virus assay (MT4/MTT), patient of Example 12 (therapy history RT and protease inhibitors); settings: for IC50: Human immunodeficiency virus 1, Table 8, Example 12 patient virus
Description: as §4, §5, §6, §1, §2, §3
An HIV infected patient with a therapy history including RT and protease inhibitors donated plasma whose susceptibility to a number of RT inhibitors and protease inhibitors was determined according to the protocol set out in Example 1.

[5] = MT4 cells, read-out: Anti-HIV-1 activity IC50 (μM) Exp. 1
[6] = MT4 cells, read-out: Anti-HIV-1 activity IC50 (μM) Exp. 2
[7] = mean, read-out: Anti-HIV-1 activity IC50 (μM) Mean (1)

How did the IC50 ([1]; Human immunodeficiency virus 1, Table 6, reference run of Example 10) turn out when `CC(C)(C)NC(=O)[C@@H]1C[C@@H]2CCCC[C@@H]2CN1C[C@@H](O)[C@H](Cc1ccccc1)NC(=O)[C@H](CC(N)=O)NC(=O)c1ccc2ccccc2n1` [saquinavir] was run?
The IC50 was 0.006 µM.

What about the IC50 ([1]; Human immunodeficiency virus 1, Table 7, reference run of Example 11) of the same molecule?
Its IC50 is 0.012 µM.

And the IC50 ([1]; Human immunodeficiency virus 1, Table 8, reference run of Example 12)?
The IC50 was 0.006 µM.

And the IC50 [2, 5]?
Its IC50 is 0.003 µM.

And the IC50 [2, 6]?
Its IC50 is 0.003 µM.

What about the IC50 [2, 7] of the same molecule?
The IC50 was 0.003 µM.

What about the “ratio (1)/(2)” value ([2]; Table 6, patient mean IC50 / recIIIB IC50, Example 10) of the same molecule?
Its value is 0.4.

And the IC50 [3, 5]?
Its IC50 is 0.014 µM.

What about the IC50 [3, 6] of the same molecule?
Its IC50 is 0.015 µM.

And the IC50 [3, 7]?
Its IC50 is 0.014 µM.

And the “ratio (1)/(2)” value ([3]; Table 7, patient mean IC50 / recIIIB IC50, Example 11)?
The value was 1.

And the “susceptibility of the patient's HIV strain (in words)” value ([4]; Example 12 patient, conclusion from Table 8)?
Its value is “decreased susceptibility”.

What about the IC50 [4, 5] of the same molecule?
Its IC50 is 0.35 µM.

What about the IC50 [4, 6] of the same molecule?
The IC50 was 0.352 µM.

And the IC50 [4, 7]?
The IC50 was 0.351 µM.

What about the “ratio (1)/(2)” value ([4]; Table 8, patient mean IC50 / recIIIB IC50, Example 12) of the same molecule?
Its value is 56.
